# Reference: publication PMC6689975, “Novel Cell Wall Antifungals Reveal a Special Synergistic Activity in pbr1 Mutants Resistant to the Glucan Synthesis Antifungals Papulacandins and Echinocandins” (Frontiers in Microbiology, 2019)
# Where two headings read alike, the source gives them in different places.
# Key:
# Assay in all cases: microbe, parasite or virus in culture
# [1] = system: T1, S. cerevisiae wild-type CVX12-3A; set-up: species or system whole yeast cells; macro tube broth dilution MIC in YEPD at 30 C, visual clearness of medium; details: Saccharomyces cerevisiae, 48 h
# T1 construct: CVX12-3A
# Procedure: (§1) Standard YEPD (Yeast Extract, Peptone, Dextrose) ([Sherman, 1990]), YEPD+S (YEPD with 1.2M sorbitol), YES (Yeast Extract, Dextrose and Supplements of Adenine, Histidine, Leucine, Uracil and Lysine) ([Alfa et al., 1993]) and YES+S (YES with 1.2 M sorbitol) ([Ribas et al., 1991]; [Ishiguro et al., 1997]), media were used for determination of MIC values of the tested compounds. A stock solution of 10 mg/ml of each tested compounds was prepared in DMSO and serial dilutions in DMSO were prepared. The final concentration of DMSO was 2% in the YEPD medium. […] The serial dilutions of compounds were dispensed into test tubes with 1 ml of YEPD or YEPD+S to make final concentrations of 200, 100, 50, 25, 12.5, 6.26, 3.125, 1.6, 0.8 and 0.4 μg/ml. The tested yeast strains were previously grown in YEPD, YEPD+S, YES or YES+S agar plates at 30°C for 48 h. For inoculation of YEPD or YEPD+S macro test tubes a suspension of tested fungus was produced with 10^5 cfu/ml (cfu - colony forming unit). 10 μl of suspension was used for inoculation of each tube. After 48 h incubation at 30°C the tubes were checked. The MIC value is the lowest concentration of the tested compound that could inhibit the fungal growth and the medium remained clear. From each tube 10 μl culture was plated on YEPD agar medium to check the contamination. The MIC tests were carried out in three parallels. The screening of the first generation of isochromanones was carried out in YEPD and YEPD+S media (1E-16E). The fungal strains analyzed are: C. albicans wild-type ATCC 26555, SC5314 and ATCC 90028, S. cerevisiae wild-type CVX12-3A and pbr1-1 mutant, and S. pombe wild-type (972h^–), pbr1-8 mutant and pbr1-6 mutant. The bold numbers in Tables 4–6 indicate the more efficient compounds. […] The weak or moderate efficacy against the C. albicans wild-type strains was observed by some substances (3E, 4Z, 5Z, 10E, 15, and 16E). The efficiency toward the S. pombe pbr1-6 mutant strain was the highest inhibitory activity, except 7E, 11E, 12 and 14E. […] As regards the other S. pombe pbr1-8 mutant strain, the antifungal activity of the tested compounds was slightly lower, but the substances with the best activity are partly identical to the best compounds mentioned with pbr1-6, (i.e., 1E, 3E, 4Z, 5Z).
# [2] = system: T2, S. pombe wild-type 972 h-; set-up: species or system whole yeast cells; macro tube broth dilution MIC in YEPD at 30 C, visual clearness of medium; details: Schizosaccharomyces pombe, 48 h
# T2 construct: 972 h-
# Procedure: as §1
# C. albicans wild-type = system: C. albicans wild-type; set-up: species or system whole yeast cells; micro-culture broth dilution MIC in YES at 30 C, turbidity, complete growth inhibition; details: Candida albicans; YES medium, C. albicans strain f
Structure (SMILES),MIC ([1]; read-out: MIC) [µg/mL],MIC ([2]; read-out: MIC) [µg/mL],MIC ([1]; YEPD medium) [µg/mL],MIC ([2]; YEPD medium) [µg/mL],MIC (C. albicans wild-type) [µg/mL]
CC[C@H](C)C[C@H](C)CCCCCCCCC(=O)N[C@H]1C[C@@H](O)[C@@H](NCCN)NC(=O)[C@@H]2[C@@H](O)CCN2C(=O)[C@H]([C@H](O)CCN)NC(=O)[C@H]([C@H](O)[C@@H](O)c2ccc(O)cc2)NC(=O)[C@@H]2C[C@@H](O)CN2C(=O)[C@H]([C@@H](C)O)NC1=O [caspofungin],1,5,,,
O=c1oc2ccc3ccccc3c2cc1-c1ccccc1CO [compound 12],,,100,200,> 200
O=c1oc2ccccc2cc1-c1ccccc1CO [compound 15],,,50,100,> 200
